Patent US12617773B2, “Azetidin-3-ylmethanol derivatives as CCR6 receptor modulators” (Idorsia Pharmaceuticals Ltd, priority 2020, dated 2026)

Each compound was assayed against T1, human CCR6 (Homo sapiens, UniProt P51684) (assay: FLIPR assay (inhibition of CCL20-induced calcium signal)). Conditions: HEK-293 cells expressing human CCR6; mean values where determined several times; read-out: FLIPR IC50.
T1 construct: expressed in transfected cells; host or cells: HEK-293
T1 sequence (P51684 1-374): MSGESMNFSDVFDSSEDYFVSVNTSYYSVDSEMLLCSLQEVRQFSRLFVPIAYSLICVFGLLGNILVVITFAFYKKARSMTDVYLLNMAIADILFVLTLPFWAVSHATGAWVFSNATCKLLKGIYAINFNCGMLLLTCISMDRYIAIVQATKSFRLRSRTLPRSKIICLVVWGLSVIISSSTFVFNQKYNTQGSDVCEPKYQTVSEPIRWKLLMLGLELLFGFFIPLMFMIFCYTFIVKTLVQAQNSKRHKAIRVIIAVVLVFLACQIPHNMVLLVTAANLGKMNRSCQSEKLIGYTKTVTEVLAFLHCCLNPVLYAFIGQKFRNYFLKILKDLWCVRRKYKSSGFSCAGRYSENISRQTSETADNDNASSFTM
Type: cell-based
In short: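 IC50 values come from baseline-corrected peak calcium fluorescence after agonist. The agonist was CCL20 at 10 nM final, added to engineered human CCR6 HEK-293 cells following a 30-min, room-temperature, dark preincubation with serially diluted compound. Readings were taken in a fluorometric imaging plate reader.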

Structure (SMILES)	IC50
CC(C)c1ccc([C@](O)(c2cncc(-c3noc(C(C)(C)O)n3)c2)C2(F)CN(C)C2)cc1 [Example 445, 2-(3-{5-[(S)-(3-Fluoro-1-methyl-azetidin-3-yl)-hydroxy-(4-isopropyl-phenyl)-methyl]-pyridin-3-yl}-[1,2,4]oxadiazol-5-yl)-propan-2-ol]	44.8 nM
CC(C)c1ccc([C@](O)(c2cncc(-c3noc(C(C)(C)O)n3)c2)C2(F)CN(C3CC3)C2)cc1 [Example 446, 2-(3-{5-[(S)-(1-Cyclopropyl-3-fluoro-azetidin-3-yl)-hydroxy-(4-isopropyl-phenyl)-methyl]-pyridin-3-yl}-[1,2,4]oxadiazol-5-yl)-propan-2-ol]	48.4 nM
CC(=O)N1CCC(c2nc(-c3cncc([C@@](O)(c4ccc(C(C)C)cc4)C4(F)CN(C)C4)c3)no2)CC1 [Example 447, 1-[4-(3-{5-[(S)-(3-Fluoro-1-methyl-azetidin-3-yl)-hydroxy-(4-isopropyl-phenyl)-methyl]-pyridin-3-yl}-[1,2,4]oxadiazol-5-yl)-piperidin-1-yl]-ethanone]	43.2 nM
CC(=O)N1CCC(c2nc(-c3cncc([C@@](O)(c4ccc(C(C)C)cc4)C4(F)CN(C5CC5)C4)c3)no2)CC1 [Example 448, 1-[4-(3-{5-[(S)-(1-Cyclopropyl-3-fluoro-azetidin-3-yl)-hydroxy-(4-isopropyl-phenyl)-methyl]-pyridin-3-yl}-[1,2,4]oxadiazol-5-yl)-piperidin-1-yl]-ethanone]	35.2 nM
CC(C)c1ccc([C@](O)(c2cncc(-c3noc(C(C)(C)O)n3)c2)C2(C)CN(C3CC3)C2)cc1 [Example 449, 2-(3-{5-[(R)-(1-Cyclopropyl-3-methyl-azetidin-3-yl)-hydroxy-(4-isopropyl-phenyl)-methyl]-pyridin-3-yl}-[1,2,4]oxadiazol-5-yl)-propan-2-ol]	40.8 nM
CC(=O)N1CCC(c2nc(-c3cncc([C@@](O)(c4ccc(C(C)C)cc4)C4(C)CN(C5CC5)C4)c3)no2)CC1 [Example 450]	57.8 nM
CC(C)c1ccc([C@](O)(c2cncc(-c3noc(C4CCOCC4)n3)c2)C2(C)CN(C3CC3)C2)cc1 [Example 451]	43.5 nM
CC(C)c1ccc([C@](O)(c2cncc(-c3noc([C@H]4CC[C@H](O)CC4)n3)c2)C2(C)CN(C3CC3)C2)cc1 [Example 452]	33.6 nM
CC(C)c1ccc([C@](O)(c2cncc(-c3noc(C4COC4)n3)c2)C2(C)CN(C3CC3)C2)cc1 [Example 453]	58.1 nM
CC(=O)N1CC[C@H](Cc2nc(-c3cncc([C@@](O)(c4ccc(C(C)C)cc4)C4(C)CN(C)C4)c3)no2)C1 [Example 454, 1-[(R)-3-(3-{5-[(R)-(1,3-Dimethyl-azetidin-3-yl)-hydroxy-(4-isopropyl-phenyl)-methyl]-pyridin-3-yl}-[1,2,4]oxadiazol-5-ylmethyl)-pyrrolidin-1-yl]-ethanone]	103 nM
CC(=O)N1CCCC(c2nc(-c3cncc([C@@](O)(c4ccc(C(C)C)cc4)C4(C)CN(C)C4)c3)no2)C1 (stereo partly shown) [Example 455]	83.1 nM
CC(=O)N1CCCC(O)(c2nc(-c3cncc([C@@](O)(c4ccc(C(C)C)cc4)C4(C)CN(C)C4)c3)no2)C1 (stereo partly shown) [Example 456]	201 nM
CC(=O)N1CCCC(C)(c2nc(-c3cncc([C@@](O)(c4ccc(C(C)C)cc4)C4(C)CN(C)C4)c3)no2)C1 (stereo partly shown) [Example 457]	56.4 nM
CC(=O)N1CCCC(Cc2nc(-c3cncc([C@@](O)(c4ccc(C(C)C)cc4)C4(C)CN(C)C4)c3)no2)C1 (stereo partly shown) [Example 458]	99 nM
CC(=O)N1CCC(O)(Cc2nc(-c3cncc([C@@](O)(c4ccc(C(C)C)cc4)C4(C)CN(C)C4)c3)no2)CC1 [Example 459]	440 nM
CC(=O)NC1(Cc2nc(-c3cncc([C@@](O)(c4ccc(C(C)C)cc4)C4(C)CN(C)C4)c3)no2)CC1 [Example 460, N-[1-(3-{5-[(R)-(1,3-Dimethyl-azetidin-3-yl)-hydroxy-(4-isopropyl-phenyl)-methyl]-pyridin-3-yl}-[1,2,4]oxadiazol-5-ylmethyl)-cyclopropyl]-acetamide]	469 nM

Structure (SMILES)	IC50
CC(C)c1ccc([C@](O)(c2cncc(-c3noc(CC4(NC(=O)C5CCOCC5)CC4)n3)c2)C2(C)CN(C)C2)cc1 [Example 461]	384 nM
COCC(=O)NC1(Cc2nc(-c3cncc([C@@](O)(c4ccc(C(C)C)cc4)C4(C)CN(C)C4)c3)no2)CC1 [Example 462]	286 nM
CC(=O)N(C)C1(Cc2nc(-c3cncc([C@@](O)(c4ccc(C(C)C)cc4)C4(C)CN(C)C4)c3)no2)CC1 [Example 463, N-[1-(3-{5-[(R)-(1,3-Dimethyl-azetidin-3-yl)-hydroxy-(4-isopropyl-phenyl)-methyl]-pyridin-3-yl}-[1,2,4]oxadiazol-5-ylmethyl)-cyclopropyl]-N-methyl-acetamide]	122 nM
CCC(=O)NC(C)(C)Cc1nc(-c2cncc([C@@](O)(c3ccc(C(C)C)cc3)C3(C)CN(C)C3)c2)no1 [Example 464, N-[2-(3-{5-[(R)-(1,3-Dimethyl-azetidin-3-yl)-hydroxy-(4-isopropyl-phenyl)-methyl]-pyridin-3-yl}-[1,2,4]oxadiazol-5-yl)-1,1-dimethyl-ethyl]-propionamide]	129 nM
COCC(=O)NC(C)(C)Cc1nc(-c2cncc([C@@](O)(c3ccc(C(C)C)cc3)C3(C)CN(C)C3)c2)no1 [Example 465]	87.5 nM
CC(C)c1ccc([C@](O)(c2cncc(-c3noc(CC(C)(C)NC(=O)C4CCOCC4)n3)c2)C2(C)CN(C)C2)cc1 [Example 466]	143 nM
CC(C)C(=O)NC(C)(C)Cc1nc(-c2cncc([C@@](O)(c3ccc(C(C)C)cc3)C3(C)CN(C)C3)c2)no1 [Example 467]	129 nM
CC(C)c1ccc([C@](O)(c2cncc(-c3noc(CC(C)(C)NC(=O)C4CC4)n3)c2)C2(C)CN(C)C2)cc1 [Example 468]	62.3 nM
CC(=O)N1CC[C@H](c2nc(-c3cncc([C@@](O)(c4ccc(C(C)C)cc4)C4(C)CN(C)C4)c3)no2)C[C@@H]1C [Example 469]	137 nM
CC(C)C(=O)N1CCC(O)(c2nc(-c3cncc([C@@](O)(c4ccc(C(C)C)cc4)C4(C)CN(C)C4)c3)no2)CC1 [Example 470]	131 nM
CCC(=O)N1CCC(O)(c2nc(-c3cncc([C@@](O)(c4ccc(C(C)C)cc4)C4(C)CN(C)C4)c3)no2)CC1 [Example 471]	125 nM
COC1(c2nc(-c3cncc([C@@](O)(c4ccc(C(C)C)cc4)C4(C)CN(C)C4)c3)no2)CCN(C(C)=O)CC1 [Example 472]	79.8 nM
CC(C)c1ccc([C@](O)(c2cncc(-c3noc(C4CCN(C(=O)CC(F)(F)F)CC4)n3)c2)C2(C)CN(C)C2)cc1 [Example 473, 1-[4-(3-{5-[(R)-(1,3-Dimethyl-azetidin-3-yl)-hydroxy-(4-isopropyl-phenyl)-methyl]-pyridin-3-yl}-[1,2,4]oxadiazol-5-yl)-piperidin-1-yl]-3,3,3-trifluoro-propan-1-one]	77.6 nM
CC(C)c1ccc([C@](O)(c2cncc(-c3noc(C4CCN(C(=O)CC5COC5)CC4)n3)c2)C2(C)CN(C)C2)cc1 [Example 474, 1-[4-(3-{5-[(R)-(1,3-Dimethyl-azetidin-3-yl)-hydroxy-(4-isopropyl-phenyl)-methyl]-pyridin-3-yl}-[1,2,4]oxadiazol-5-yl)-piperidin-1-yl]-2-oxetan-3-yl-ethanone]	121 nM
CCC1(c2nc(-c3cncc([C@@](O)(c4ccc(C(C)C)cc4)C4(C)CN(C)C4)c3)no2)CCN(C(C)=O)CC1 [Example 475]	54.7 nM
